Data from the NIST ThermoML archive (doi:10.1016/j.jct.2013.10.025).
Numbers after ± are expanded uncertainties.

Details: 298.15 K, 101.33 kPa, Liquid; for viscosity: Capillary tube (Ostwald / Ubbelohde) method; for speed of sound: Sing-around technique in a fixed-path interferometer; for mass density: Vibrating tube method

viscosity [mPa·s]	speed of sound [m/s]	mass density [kg/m3]	Compound
7.446 ± 0.36	1347.9 ± 1.5	821.837 ± 0.24	CCCCCCCCO [octan-1-ol]
10.61 ± 0.37	1379.3 ± 1.6	826.407 ± 0.24	CCCCCCCCCCO [decan-1-ol]
0.474	1280.1 ± 1.5	882.15 ± 0.23	C1CCOC1 [tetrahydrofuran]
4.436 ± 0.36	1303.5 ± 1.5	815.295 ± 0.24	CCCCCCO [hexan-1-ol]
